In article PMC6207618, “The GbsR Family of Transcriptional Regulators: Functional Characterization of the OpuAR Repressor” (Frontiers in Microbiology, 2018):
“Also recorded” adds a separate entry of the source.

Tested on: B. infantis NRRL B-14911
Assay: Osmostress protection assay of B. infantis
Type: cell-based, Bacillus infantis
Details: basal medium with 0.9 M NaCl, 1 mM osmostress protectant, 29 h, 37°C
Protocol: Bacterial strains were propagated in Luria–Bertani (LB) liquid media at 37°C or plated on LB agar plates. The B. infantis strain NRRL B-14911 was grown in MOPS-buffered basal medium [50 mM MOPS (pH 7.5), 50 mM MgSO4, 10 mM KCl, 10 mM CaCl2, 190 mM NH4Cl, 0.33 mM K2HPO4, 0.1 mM FeSO4] supplemented with 0.5% glucose (wt/vol) as a carbon source, 0.4% casamino acids (wt/vol), 5 ml l^-1 vitamin solution A (7.8 mg l^-1 biotin, 15.6 mg l^-1 nicotinic acid, and 15.6 mg l^-1 lipoic acid; pH adjusted to 7.5), and 5 ml l^-1 vitamin solution B (15.6 mg l^-1 pantothenic acid, 15.6 mg l^-1 pyridoxine-HCl, 15.6 mg l^-1 thiamine, 15.6 mg l^-1 p-aminobenzoic acid, and 0.32 mg l^-1 cobalamin) ([Gonzalez et al., 1997]). In main cultures used for osmostress protection assays, casamino acids were left out from the growth medium. The osmolarity of growth media was adjusted by the addition of NaCl from a 5 M NaCl stock solution. If desired, osmostress protectants were added to the medium of B. infantis NRRL B-14911 cultures at a final concentration of 1 mM. For growth experiments, liquid cultures of B. infantis NRRL B-14911 were grown in 100-ml Erlenmeyer flasks containing 20-ml of medium in a water bath set to 37°C with vigorous shaking (set to 220 rpm). Pre-cultures of strains were propagated to mid-exponential growth phase in basal medium (with 0.4% casamino acids) and were then used to inoculate fresh basal medium (without casamino acids) to an optical density at 578 nm (OD578) of 0.1. Liquid cultures of B. subtilis strains were grown at 37°C in Spizizen’s minimal medium (SMM) ([Harwood and Archibald, 1990]) with 0.5% glucose as carbon source and a solution of trace elements ([Harwood and Cutting, 1990]). L-Tryptophan (20 mg l^-1) and L-phenylalanine (18 mg l^-1) were added to SMM-derived growth media to satisfy the auxotrophic needs of the B. subtilis strain JH642 (trpC2 pheA1) ([Smith et al., 2014]) and its derivatives (Supplementary Table S1). Cultures (20-ml in 100-ml Erlenmeyer flasks) of B. subtilis strains were inoculated from exponentially growing pre-cultures in SMM to an OD578 of 0.1 and were incubated in a shaking water bath (set to 220 rpm) at 37°C. If needed, the osmolarity of the growth medium was increased by the addition of NaCl (from 5 M stock solutions prepared in H2O). Compatible solutes were filter sterilized and added to the growth medium of B. subtilis strains from 100 mM stock solutions to a final concentration of 1 mM unless otherwise explicitly stated in the text.
(A) Influence of increasing salinity on the growth of B. infantis NRRL B-14911. Cultures were grown in basal medium adjusted to the indicated salinity. Growth yields were measured after 30 h of incubation at 37°C. (B) Osmostress protection assays were carried out in basal medium supplemented with 0.9 M NaCl and in the presence of 1 mM of the indicated osmostress protectants. After 29 h of incubation at 37°C, growth yields were determined by measuring the OD578 of the cultures. (C) Substrate specificity of the B. infantis OpuA transporter. The opuA operon (and its flanking opuAR gene) of B. infantis NRRL B-14911 was heterologously expressed in a derivative of B. subtilis JH642, lacking all uptake system for compatible solutes except for the L-proline-specific OpuE transporter ([Hoffmann and Bremer, 2017]; [Teichmann et al., 2017]). Growth assays were conducted in minimal medium (SMM), either in the absence or presence of 1.2 M NaCl and 1 mM of the indicated osmostress protectants. After 18 h of incubation at 37°C, the optical densities (OD578) of the cultures were measured. The given values are the means and standard deviations of four independent biological replicates.
Next, we studied the possible osmostress protection of B. infantis NRRL B-14911 by various exogenously provided compatible solutes.

SMILES | Osmostress protection (growth yield OD578)
CN(C)CC(=O)O [DMG, dimethlyglycine] | moderate level of osmostress protection
C[S+](C)CCC(=O)[O-] [DMSP, dimethylsulfoniopropionate] | moderate level of osmostress protection
C[N+](C)(C)CCO [choline] | not osmostress protective; also recorded: does not serve as an osmostress protectant
C[N+](C)(C)CC(=O)[O-] [glycine betaine] | substantial level of osmostress protection
C[N+](C)(C)CCC(=O)[O-] [homobetaine] | moderate level of osmostress protection
C[N+]1(C)CCC[C@H]1C(=O)[O-] [proline betaine] | substantial level of osmostress protection
